Values quoted from earlier work as cited in PMC8619046, “ABCB1 and ABCG2 Control Brain Accumulation and Intestinal Disposition of the Novel ROS1/TRK/ALK Inhibitor Repotrectinib, While OATP1A/1B, ABCG2, and CYP3A Limit Its Oral Availability” (Pharmaceutics, 2021).

Settings: cited from earlier work; for brain-to-plasma ratio: wild-type mice; for fold increase of brain-to-plasma ratio: combined genetic knockout of Abcb1 and Abcg2, mice

C[C@@H](Oc1cc(-c2cnn(C3CCNCC3)c2)cnc1N)c1c(Cl)ccc(F)c1Cl [crizotinib]
fold enhancement of brain-to-plasma ratio (mouse, in vivo): ~ 15 fold | brain-to-plasma ratio: about 0.2

C[C@H]1Oc2cc(cnc2N)-c2c(nn(C)c2C#N)CN(C)C(=O)c2ccc(F)cc21 [lorlatinib]
fold increase of brain-to-plasma ratio: 4 fold | brain-to-plasma ratio: 0.4

C[C@@H]1CCc2ncc(F)cc2[C@H]2CCCN2c2ccn3ncc(c3n2)C(=O)N1 [selitrectinib]
fold increase of brain-to-plasma ratio: 6 fold | brain-to-plasma ratio: 0.03
